Several values for one entry are separate records, joined by “and”; a condition that tells them apart may be missing. Identical values can stand only once. Toxic doses and inconclusive results are not listed.
System: P388 leukemia ip, CD2F1 mice, survival T/C
Assay: NCI In Vivo Anticancer Drug Screen. Data for tumor model P388 Leukemia (intraperitoneal) in CD2F1 (CDF1) mice
Conditions: endpoint: median survival time, higher = longer survival
Method in brief: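 Mice carrying the transplanted tumor received test compound or vehicle. Survival was recorded in each group, and the value is the treated-group measurement divided by that of the vehicle-treated control group.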

[1] = dose: 12.5 mg/kg/injection, schedule: Q01DX009 (ip), vehicle: water
[2] = dose: 25.0 mg/kg/injection, schedule: Q01DX009 (ip), vehicle: water
[3] = dose: 50.0 mg/kg/injection, schedule: Q01DX009 (ip), vehicle: water
[4] = dose: 100.0 mg/kg/injection, schedule: Q01DX009 (ip), vehicle: water
[5] = dose: 50.0 mg/kg/injection, schedule: Q01DX005 (ip), vehicle: Klucel (hydroxypropylcellulose) (HPC)
[6] = dose: 50.0 mg/kg/injection, schedule: Q01DX009 (ip), vehicle: saline with Tween-80
[7] = dose: 100.0 mg/kg/injection, schedule: Q01DX009 (ip), vehicle: saline with Tween-80
[8] = dose: 200.0 mg/kg/injection, schedule: Q01DX009 (ip), vehicle: saline with Tween-80
[9] = dose: 60.0 mg/kg/injection, schedule: Q01DX005 (ip), vehicle: Klucel (hydroxypropylcellulose) (HPC)
[10] = dose: 120.0 mg/kg/injection, schedule: Q01DX005 (ip), vehicle: Klucel (hydroxypropylcellulose) (HPC)
[11] = dose: 240.0 mg/kg/injection, schedule: Q01DX005 (ip), vehicle: Klucel (hydroxypropylcellulose) (HPC)
[12] = dose: 25.0 mg/kg/injection, schedule: Q01DX009 (ip), vehicle: saline
[13] = dose: 50.0 mg/kg/injection, schedule: Q01DX009 (ip), vehicle: saline
[14] = dose: 100.0 mg/kg/injection, schedule: Q01DX009 (ip), vehicle: saline
[15] = dose: 50.0 mg/kg/injection, schedule: Q01DX005 (ip), vehicle: saline with Tween-80
[16] = dose: 100.0 mg/kg/injection, schedule: Q01DX005 (ip), vehicle: saline with Tween-80
[17] = dose: 200.0 mg/kg/injection, schedule: Q01DX005 (ip), vehicle: saline with Tween-80
[18] = dose: 200.0 mg/kg/injection, schedule: Q01DX009 (ip), vehicle: saline

## CC(=O)NCCc1nc(-c2nc(C(=O)NCCCCN)cs2)cs1
[1]
  T/C: 100 % of control
[2]
  T/C: 98 % of control and 109 % of control
[3]
  T/C: 100 % of control and 113 % of control
[4]
  T/C: 103 % of control and 119 % of control
dose: 200.0 mg/kg/injection, schedule: Q01DX009 (ip), vehicle: water
  T/C: 107 % of control
dose: 400.0 mg/kg/injection, schedule: Q01DX009 (ip), vehicle: water
  T/C: 104 % of control

## CC(=O)c1c(O)c(C)c(O)c2c1OC1=CC(=O)/C(=C(/C)N)C(=O)C12C (stereo unspecified)
dose: 6.25 mg/kg/injection, schedule: Q01DX009 (ip), vehicle: gum acacia
  T/C: 107 % of control and 112 % of control
dose: 12.5 mg/kg/injection, schedule: Q01DX009 (ip), vehicle: gum acacia
  T/C: 100 % of control and 105 % of control
dose: 25.0 mg/kg/injection, schedule: Q01DX009 (ip), vehicle: gum acacia
  T/C: 102 % of control and 109 % of control
dose: 50.0 mg/kg/injection, schedule: Q01DX009 (ip), vehicle: gum acacia
  T/C: 100 % of control and 86 % of control
dose: 100.0 mg/kg/injection, schedule: Q01DX009 (ip), vehicle: gum acacia
  T/C: 100 % of control and 106 % of control
dose: 200.0 mg/kg/injection, schedule: Q01DX009 (ip), vehicle: gum acacia
  T/C: 102 % of control and 110 % of control

## ClCc1nsc(Cl)n1
dose: 12.5 mg/kg/injection, schedule: Q01DX005 (ip), vehicle: Klucel (hydroxypropylcellulose) (HPC)
  T/C: 93 % of control
dose: 25.0 mg/kg/injection, schedule: Q01DX005 (ip), vehicle: Klucel (hydroxypropylcellulose) (HPC)
  T/C: 98 % of control
[5]
  T/C: 104 % of control and 93 % of control

## CC(=O)Nc1cn(C)cc1[N+](=O)[O-]
[6]
  T/C: 102 % of control
[7]
  T/C: 103 % of control
[8]
  T/C: 104 % of control

## COc1ccc(-c2cc(-c3ccc(OC)cc3OC)[n+](C)c(-c3ccc(OC)cc3OC)c2)cc1
dose: 0.78 mg/kg/injection, schedule: Q01DX009 (ip), vehicle: saline with Tween-80
  T/C: 124 % of control
dose: 1.56 mg/kg/injection, schedule: Q01DX009 (ip), vehicle: saline with Tween-80
  T/C: 124 % of control

## O=C(O)c1cn2cccnc2n1
dose: 100.0 mg/kg/injection, schedule: Q01DX001 (ip), vehicle: Klucel (hydroxypropylcellulose) (HPC)
  T/C: 100 % of control
dose: 200.0 mg/kg/injection, schedule: Q01DX001 (ip), vehicle: Klucel (hydroxypropylcellulose) (HPC)
  T/C: 98 % of control
dose: 400.0 mg/kg/injection, schedule: Q01DX001 (ip), vehicle: Klucel (hydroxypropylcellulose) (HPC)
  T/C: 99 % of control

## Cn1c(O)c(N=O)c(=O)[nH]c1=S
dose: 12.5 mg/kg/injection, schedule: Q04DX002 (ip), vehicle: saline
  T/C: 101 % of control
dose: 25.0 mg/kg/injection, schedule: Q04DX002 (ip), vehicle: saline
  T/C: 103 % of control

## N#CC1=C(Nc2ccccc2Cl)SC(c2c(Cl)cccc2Cl)NC1=O (stereo unspecified)
[9]
  T/C: 90 % of control
[10]
  T/C: 100 % of control
[11]
  T/C: 93 % of control

## NC(Cc1ccccc1)C(=O)OCN1C(=O)C2C3C=CC(C2C1=O)C1C2C(=O)N(COC(=O)C(N)Cc4ccccc4)C(=O)C2C31 (stereo unspecified)
[1]
  T/C: 103 % of control
[12]
  T/C: 100 % of control and 102 % of control
[2]
  T/C: 106 % of control and 113 % of control and 103 % of control
[13]
  T/C: 110 % of control
[3]
  T/C: 109 % of control and 124 % of control
[14]
  T/C: 184 % of control
[4]
  T/C: 189 % of control and 197 % of control
dose: 150.0 mg/kg/injection, schedule: Q01DX009 (ip), vehicle: saline
  T/C: 192 % of control

## COc1cc(CC#N)c(S(=O)O)cc1OC
[6]
  T/C: 116 % of control
[7]
  T/C: 109 % of control
[8]
  T/C: 114 % of control

## Cc1cc(N(CCCl)CCCl)ccc1N=Nc1cccc2ccccc12
[6]
  T/C: 105 % of control
[7]
  T/C: 115 % of control
[8]
  T/C: 123 % of control

## CSc1nc(NC2OC(COC(C)=O)C(OC(C)=O)C(OC(C)=O)C2OC(C)=O)c(C(=O)CCl)c(=O)n1C (stereo unspecified)
[15]
  T/C: 102 % of control
[16]
  T/C: 96 % of control
[17]
  T/C: 92 % of control

## Clc1nc(Cl)nc(Nc2ccc(-c3cc4ccc(-c5ncc[nH]5)cc4[nH]3)cc2)n1
[9]
  T/C: 100 % of control
[10]
  T/C: 100 % of control
[11]
  T/C: 105 % of control

## CCOC(=O)N1C(=O)C2C3CCC(C2C1=O)C1C2C(=O)N(C(=O)OCC)C(=O)C2C31 (stereo unspecified)
dose: 12.5 mg/kg/injection, schedule: Q01DX009 (ip), vehicle: saline with Tween-80
  T/C: 103 % of control
dose: 25.0 mg/kg/injection, schedule: Q01DX009 (ip), vehicle: saline with Tween-80
  T/C: 104 % of control and 111 % of control
[6]
  T/C: 115 % of control
[7]
  T/C: 157 % of control
[8]
  T/C: 222 % of control

## Cc1c([N+](=O)[O-])/c(=N/O)c2c(=O)c([N+](=O)[O-])coc2n1O
dose: 50.0 mg/kg/injection, schedule: Q01DX009 (ip), vehicle: Klucel (hydroxypropylcellulose) (HPC)
  T/C: 108 % of control
dose: 100.0 mg/kg/injection, schedule: Q01DX009 (ip), vehicle: Klucel (hydroxypropylcellulose) (HPC)
  T/C: 99 % of control
dose: 200.0 mg/kg/injection, schedule: Q01DX009 (ip), vehicle: Klucel (hydroxypropylcellulose) (HPC)
  T/C: 90 % of control

## CCOc1c(OC)cc(-c2n[nH]c(=S)o2)cc1OC
dose: 100.0 mg/kg/injection, schedule: Q04DX003 (ip), vehicle: Klucel (hydroxypropylcellulose) (HPC)
  T/C: 101 % of control
dose: 200.0 mg/kg/injection, schedule: Q04DX003 (ip), vehicle: Klucel (hydroxypropylcellulose) (HPC)
  T/C: 95 % of control
dose: 400.0 mg/kg/injection, schedule: Q04DX003 (ip), vehicle: Klucel (hydroxypropylcellulose) (HPC)
  T/C: 100 % of control

## CN1CCN(CN2C(=O)C3C4C=CC(C3C2=O)C2C(=O)N(CN3CCN(C)CC3)C(=O)C42)CC1 (stereo unspecified)
dose: 12.5 mg/kg/injection, schedule: Q01DX009 (ip), vehicle: saline
  T/C: 108 % of control
[12]
  T/C: 105 % of control
[13]
  T/C: 108 % of control
[14]
  T/C: 113 % of control
[18]
  T/C: 122 % of control

## CCN=C(N)N=C(N)N
dose: 25.0 mg/kg/injection, schedule: Q01DX001 (ip), vehicle: saline
  T/C: 108 % of control
dose: 50.0 mg/kg/injection, schedule: Q01DX001 (ip), vehicle: saline
  T/C: 87 % of control
[13]
  T/C: 100 % of control
dose: 100.0 mg/kg/injection, schedule: Q01DX001 (ip), vehicle: saline
  T/C: 87 % of control
[14]
  T/C: 107 % of control
[18]
  T/C: 98 % of control

## O=c1c(=NO)c(=O)c2ccccc12
dose: 100.0 mg/kg/injection, schedule: Q01DX001 (ip), vehicle: saline with Tween-80
  T/C: 103 % of control
dose: 200.0 mg/kg/injection, schedule: Q01DX001 (ip), vehicle: saline with Tween-80
  T/C: 110 % of control

## Cc1nn(C)pc1P(C)(=S)n1nc(N(C)C)np1 (stereo unspecified)
[5]
  T/C: 98 % of control
dose: 100.0 mg/kg/injection, schedule: Q01DX005 (ip), vehicle: Klucel (hydroxypropylcellulose) (HPC)
  T/C: 103 % of control

## CCN(CC)c1cc2oc3cc(N)cc(=N)c-3nc2cc1C
dose: 12.5 mg/kg/injection, schedule: Q01DX005 (ip), vehicle: saline
  T/C: 102 % of control
dose: 25.0 mg/kg/injection, schedule: Q01DX005 (ip), vehicle: saline
  T/C: 98 % of control
[15]
  T/C: 112 % of control
dose: 50.0 mg/kg/injection, schedule: Q01DX005 (ip), vehicle: saline
  T/C: 96 % of control
[16]
  T/C: 107 % of control
[17]
  T/C: 102 % of control

## COc1cccc2c1C(=O)c1c(O)c3c(c(O)c1C2=O)C[C@@](O)(C(C)=O)[C@@H](OC)[C@@H]3OC1CC(N)C(O)C(C)O1 (stereo partly specified)
dose: 0.6 mg/kg/injection, schedule: Q04DX003 (ip), vehicle: water
  T/C: 103 % of control
dose: 1.2 mg/kg/injection, schedule: Q04DX003 (ip), vehicle: water
  T/C: 122 % of control
dose: 2.4 mg/kg/injection, schedule: Q04DX003 (ip), vehicle: water
  T/C: 108 % of control
dose: 2.5 mg/kg/injection, schedule: Q04DX003 (ip), vehicle: water
  T/C: 108 % of control
dose: 4.8 mg/kg/injection, schedule: Q04DX003 (ip), vehicle: water
  T/C: 123 % of control
dose: 5.0 mg/kg/injection, schedule: Q04DX003 (ip), vehicle: water
  T/C: 108 % of control

From PubChem BioAssay AID330 (DTP/NCI, 2004)
